From patent US7445641B1, “Biomaterials modified with superoxide dismutase mimics” (priority 1999, dated 2008)

Assay: Stopped-flow kinetic analysis of superoxide dismutation
Assay type: biochemical
Parameters: kcat pH 8.1 / kcat pH 7.4: unit not given here
Text: Stopped-flow kinetic analysis is an accurate and direct method for quantitatively monitoring the decay rates of superoxide in water.
For the attainment of consistent and accurate measurements all reagents were biologically clean and metal-free. To achieve this, all buffers (Calbiochem) were biological grade, metal-free buffers and were handled with utensils which had been washed first with 0.1N HCl, followed by purified water, followed by a rinse in a 10^−4 M EDTA bath at pH 8, followed by a rinse with purified water and dried at 65° C. for several hours. Dry DMSO solutions of potassium superoxide (Aldrich) were prepared under a dry, inert atmosphere of argon in a Vacuum Atmospheres dry glovebox using dried glassware. The DMSO solutions were prepared immediately before every stopped-flow experiment. A mortar and pestle were used to grind the yellow solid potassium superoxide (~100 mg). The powder was then ground with a few drops of DMSO and the slurry transferred to a flask containing an additional 25 ml of DMSO. The resultant slurry was stirred for ½ h and then filtered. This procedure gave reproducibly ~2 mM concentrations of superoxide in DMSO. These solutions were transferred to a glovebag under nitrogen in sealed vials prior to loading the syringe under nitrogen. It should be noted that the DMSO/superoxide solutions are extremely sensitive to water, heat, air, and extraneous metals. A fresh, pure solution has a very slight yellowish tint.
Water for buffer solutions was delivered from an in-house deionized water system to a Barnstead Nanopure Ultrapure Series 550 water system and then double distilled, first from alkaline potassium permanganate and then from a dilute EDTA solution. For example, a solution containing 1.0 g of potassium permanganate, 2 liters of water and additional sodium hydroxide necessary to bring the pH to 9.0 were added to a 2-liter flask fitted with a solvent distillation head. This distillation will oxidize any trace of organic compounds in the water. The final distillation was carried out under nitrogen in a 2.5-liter flask containing 1500 ml of water from the first still and 1.0×10^−6 M EDTA. This step will remove remaining trace metals from the ultrapure water. To prevent EDTA mist from volatilizing over the reflux arm to the still head, the 40-cm vertical arm was packed with glass beads and wrapped with insulation. This system produces deoxygenated water that can be measured to have a conductivity of less than 2.0 nanomhos/cm^2.
The stopped-flow spectrometer system was designed and manufactured by Kinetic Instruments Inc. (Ann Arbor, Mich.) and was interfaced to a MAC IICX personal computer. The software for the stopped-flow analysis was provided by Kinetics Instrument Inc. and was written in QuickBasic with MacAdios drivers. Typical injector volumes (0.10 ml of buffer and 0.006 ml of DMSO) were calibrated so that a large excess of water over the DMSO solution were mixed together. The actual ratio was approximately 19/1 so that the initial concentration of superoxide in the aqueous solution was in the range 60-120 μM. […]

Row | Molecule | kcat pH 7.4 | kcat pH 8.1
1 | [Cl][Mn]1234([Cl])[N]5CC[N]1CC[N]2CC[N]3CC[N]4CC5 [Compound 1] | 4.13 | 2.24
2 | [Cl][Mn]1234([Cl])[N]5CC[N]1CC[N]2CC(Cc1ccccc1)[N]3CC[N]4CC5 (stereo not shown) [Compound 2] | 7.21 | 2.57
3 | C#CCC1C[N]2CC[N]3CC[N]4CC[N]5CC[N]1[Mn]4352([Cl])[Cl] (stereo not shown) [Compound 4] |  | 1.75
4 | C[C@@H]1C[N]2[C@@H](C)C[N]3[C@@H](C)C[N]4[C@H](C)C[N]5[C@@H](C)C[N]1[Mn]4523([Cl])[Cl] [Compound 5] | 3.82 | 3.90
5 | Oc1ccccc1CC1C[N]2CC[N]3CC[N]4CC[N]5CC[N]1[Mn]4352([Cl])[Cl] (stereo not shown) [Compound 6] | 6.99 | 3.83
6 | [Cl][Mn]1234([Cl])[N]5CC[N]1CC[N]2[C@@H](Cc1cnc[nH]1)C[N]3[C@H](Cc1cnc[nH]1)C[N]4CC5 [Compound 7] | 2.00 | 1.58
7 | CNCCCC[C@@H]1C[N]2CC[N]3CC[N]4CC[N]5[C@@H](CCCCNC)C[N]1[Mn]3425([Cl])[Cl] [Compound 8] | 5.95 | 5.90
8 | FC(F)(F)CC1C[N]2CC[N]3CC[N]4CC[N]5CC[N]1[Mn]4352([Cl])[Cl] (stereo not shown) [Compound 9] | 2.77 | 1.68
9 | OC[C@@H]1C[N]2[C@@H](CO)C[N]3[C@@H](CO)C[N]4[C@H](CO)C[N]5[C@@H](CO)C[N]1[Mn]4523([Cl])[Cl] [Compound 10] | 2.68 | 2.68
10 | NCCC[C@H]1C[N]2[C@@H]3CCCC[C@H]3[N]3CC[N]4CC[N]5CC[N]1[Mn]5432([Cl])[Cl] [Compound 11] | 4.79 | 2.85
11 | [Cl-].[Cl-].[NH3+]CCCC[C@@H]1C[N]2[C@@H](CCCC[NH3+])C[N]3[C@@H]4CCCC[C@H]4[N]4CC[N]5CC[N]1[Mn]5243([Cl])[Cl] [Compound 12] | 10.20 | 5.39
12 | C=CCC1C[N]2CC[N]3CC[N]4CC[N]5CC[N]1[Mn]4352([Cl])[Cl] (stereo not shown) [Compound 13] |  | 1.63
13 | NCCC[C@H]1C[N]2[C@H]3CCCC[C@H]3[N]3CC[N]4[C@H]5CCCC[C@H]5[N]5CC[N]1[Mn]5342([Cl])[Cl] [Compound 14] | 7.58 | 3.84
14 | C[C@H](CCCNCCC[C@H]1C[N]2[C@@H]3CCCC[C@H]3[N]3CC[N]4CC[N]5CC[N]1[Mn]5432([Cl])[Cl])[C@H]1CCC2[C@@H]3CC[C@@H]4C[C@H](O)CC[C@]4(C)C3CC[C@@]21C (stereo partly shown) [Compound 15] | 2.41 | 0.77
15 | NCC[C@H]1C[N]2[C@@H](CCN)C[N]3[C@@H]4CCCC[C@H]4[N]4CC[N]5CC[N]1[Mn]5243([Cl])[Cl] [Compound 16] | 2.48 | 1.97
16 | [Cl][Mn]1234([Cl])[N]5CC[N]1C1CCCCC1[N]2CC[N]3C1CCCCC1[N]4CC5 (stereo not shown) [Compound 17] | 12.60 | 4.09
17 | C[C@@H]1C[N]2[C@H]3CCCC[C@H]3[N]3CC[N]4C5CCCCC5[N]5CC[N]1[Mn]5432([Cl])[Cl] (stereo partly shown) [Compound 18] | 15.00 | 4.00
18 | C[C@@H]1C[N]2[C@@H](C)C[N]3[C@@H]4CCCC[C@H]4[N]4C[C@H](C)[N]5CC[N]1[Mn]4352([Cl])[Cl] [Compound 19] | 8.48 | 4.08

Row | Molecule | kcat pH 7.4 | kcat pH 8.1
19 | [Cl-].[Cl][Fe]1234([Cl])[N]5CC[N]1C1CCCCC1[N]2CC[N]3C1CCCCC1[N]4CC5 (stereo not shown) [Compound 20] | 3.29 | 0.93
20 | CC(C)(C)SC[C@H]1C[N]2[C@@H]3CCCC[C@H]3[N]3C[C@H](CSC(C)(C)C)[N]4CC[N]5CC[N]1[Mn]5423([Cl])[Cl] [Compound 21] | 2.93 | 1.29
21 | N#C[S][Mn]1234([S]C#N)[N]5CC[N]1C1CCCCC1[N]2CC[N]3C1CCCC[C@H]1[N]4CC5 (stereo partly shown) [Compound 22] | 11.40 | 5.03
22 | OC[C@@H]1C[N]2CC[N]3[C@@H](CO)C[N]4[C@H](CO)C[N]5[C@@H](CO)C[N]1[Mn]2345([Cl])[Cl] [Compound 23] | 6.61 | 3.47
23 | C[C@@H]1C[N]2[C@@H](C)C[N]3CC[N]4C[C@H](C)[N]5[C@@H](COc6ccco6)C[N]1[Mn]3425([Cl])[Cl] [Compound 24] | 2.55 | 2.55
24 | COC(=O)C1=C(C(=O)OC)C2OC1C=C2COC[C@H]1C[N]2[C@H](C)C[N]3[C@@H](C)C[N]4CC[N]5[C@H](C)C[N]1[Mn]4523([Cl])[Cl] (stereo partly shown) [Compound 25] | 4.04 | 2.34
25 | OC[C@@H]1C[N]2[C@@H]3CCCC[C@H]3[N]3CC[N]4C5CCCCC5[N]5CC[N]1[Mn]5432([Cl])[Cl] (stereo partly shown) [Compound 26] | 10.12 | 3.47
26 | C[C@H]1C[N]2[C@@H](CCCO)C[N]3[C@@H]4CCCC[C@H]4[N]4C[C@H](CCCO)[N]5CC[N]1[Mn]5243([Cl])[Cl] [Compound 27] | 4.83 | 2.50
27 | C[C@@H]1C[N]2[C@@H](CCCN)C[N]3[C@@H]4CCCC[C@H]4[N]4CC[N]5[C@@H](C)C[N]1[Mn]2435([Cl])[Cl] [Compound 31] | 2.97 | 2.91
28 | C[C@@H]1C[N]2[C@@H](CCCNC(=O)CCC(=O)O)C[N]3[C@@H]4CCCC[C@H]4[N]4CC[N]5[C@@H](C)C[N]1[Mn]2435([Cl])[Cl] [Compound 32] | 1.74 | 1.43
29 | CC(=O)OC[C@@H]1C[N]2CC[N]3[C@@H](COC(C)=O)C[N]4[C@H](COC(C)=O)C[N]5[C@@H](COC(C)=O)C[N]1[Mn]2345([Cl])[Cl] [Compound 33] | 7.27 | 4.08
30 | CCC(=O)OCC1C[N]2CC[N]3[C@@H](COC(=O)CC)C[N]4[C@@H](COC(=O)CC)C[N]5[C@@H](COC(=O)CC)C[N]1[Mn]2354([Cl])[Cl] (stereo partly shown) [Compound 34] | 2.70 | 2.78
31 | C[C@H]1C[N]2[C@@H](C)C[N]3[C@@H](CCCNC(=O)CC(CC(=O)O)NC(=O)CNC(=O)c4cccc(NC(=N)N)c4)C[N]4[C@H]5CCCC[C@H]5[N]5CC[N]1[Mn]3524([Cl])[Cl] (stereo partly shown) [Compound 35] | 4.38 | 2.87
32 | O=C(OC[C@H]1C[N]2[C@@H](COC(=O)c3ccccc3)C[N]3[C@@H](COC(=O)c4ccccc4)C[N]4[C@@H](COC(=O)c5ccccc5)C[N]5CC[N]1[Mn]5423([Cl])[Cl])c1ccccc1 [Compound 36] | 0.63 | 0.49
33 | CC(C)C(=O)OC[C@@H]1C[N]2[C@@H]3CCCC[C@H]3[N]3CC[N]4C5CCCCC5[N]5CC[N]1[Mn]5432([Cl])[Cl] (stereo partly shown) [Compound 37] | 3.08 | 
34 | CCC(=O)OC[C@H]1C[N]2[C@@H]3CCCC[C@H]3[N]3CC[N]4C5CCCCC5[N]5CC[N]1[Mn]5432([Cl])[Cl] (stereo partly shown) [Compound 39] | 3.89 | 2.32
35 | Manganese(II) dichloro(4R,9R,11R,14R,19R)-3,10,13,20,26-pentaaza-(2R,21R)-dimethyltetracyclo[20.3.1.0^4,9, 0^14,19]hexacose-1(25),22(26),23-triene [Compound 40] | 90.00 | 11.00
